{
  "source": "the kinase profiling compilation of Christmann-Franck et al. (2016)",
  "assay_in_all_cases": "radiometric filter-binding kinase assay, Kinase HotSpot",
  "conditions_in_all_cases": "compound 0.5 µM; ATP 10 µM",
  "key": {"EPHB1 (human)": {"target": "EPHB1 (human) (UniProt P54762)"}, "INSRR (human)": {"target": "INSRR (human) (UniProt P14616)"}, "HIPK1 (human)": {"target": "HIPK1 (human) (UniProt Q86Z02)"}, "WNK2 (human)": {"target": "WNK2 (human) (UniProt Q9Y3S1)"}, "EPHA8 (human)": {"target": "EPHA8 (human) (UniProt P29322)"}, "PRKD1 (human)": {"target": "PRKD1 (human) (UniProt Q15139)", "sequence (Q15139 whole entry, looked up)": "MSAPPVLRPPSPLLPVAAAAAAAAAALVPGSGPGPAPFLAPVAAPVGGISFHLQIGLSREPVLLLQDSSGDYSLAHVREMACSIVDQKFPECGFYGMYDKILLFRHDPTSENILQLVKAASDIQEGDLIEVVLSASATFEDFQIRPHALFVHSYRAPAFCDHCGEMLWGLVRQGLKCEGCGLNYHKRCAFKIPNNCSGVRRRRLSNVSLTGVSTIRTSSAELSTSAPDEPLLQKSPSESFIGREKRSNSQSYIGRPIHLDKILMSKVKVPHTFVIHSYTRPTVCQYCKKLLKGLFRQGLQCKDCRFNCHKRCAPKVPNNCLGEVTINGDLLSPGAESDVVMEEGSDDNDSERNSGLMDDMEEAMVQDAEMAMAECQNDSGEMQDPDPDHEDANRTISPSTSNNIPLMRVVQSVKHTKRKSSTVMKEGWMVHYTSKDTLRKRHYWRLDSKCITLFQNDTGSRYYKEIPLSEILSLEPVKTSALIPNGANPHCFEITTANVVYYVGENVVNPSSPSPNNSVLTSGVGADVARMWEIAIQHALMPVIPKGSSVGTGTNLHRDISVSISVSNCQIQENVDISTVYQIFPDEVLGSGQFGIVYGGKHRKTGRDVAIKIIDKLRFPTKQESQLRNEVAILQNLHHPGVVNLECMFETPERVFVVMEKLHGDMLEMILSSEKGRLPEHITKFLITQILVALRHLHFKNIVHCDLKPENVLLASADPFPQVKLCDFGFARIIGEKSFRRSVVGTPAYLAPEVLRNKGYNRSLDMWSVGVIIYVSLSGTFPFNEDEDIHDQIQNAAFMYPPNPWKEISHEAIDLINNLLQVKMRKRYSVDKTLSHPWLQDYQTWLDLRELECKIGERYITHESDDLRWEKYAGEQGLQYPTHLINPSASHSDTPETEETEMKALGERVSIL"}, "ABL2 (human)": {"target": "ABL2 (human) (UniProt P42684)"}, "ITK (human)": {"target": "ITK (human) (UniProt Q08881)"}, "IKBKE (human)": {"target": "IKBKE (human) (UniProt Q14164)"}, "PAK1 (human)": {"target": "PAK1 (human) (UniProt Q13153)"}, "TEK (human)": {"target": "TEK (human) (UniProt Q02763)"}, "PBK (human)": {"target": "PBK (human) (UniProt Q96KB5)"}, "CDK6 CCND3 (human)": {"target": "CDK6 CCND3 (human) (UniProt P30281+Q00534)"}, "CDC42BPB (human)": {"target": "CDC42BPB (human) (UniProt Q9Y5S2)"}, "PRKD2 (human)": {"target": "PRKD2 (human) (UniProt Q9BZL6)"}, "BRSK2 (human)": {"target": "BRSK2 (human) (UniProt Q8IWQ3)"}, "CSNK1G1 (human)": {"target": "CSNK1G1 (human) (UniProt Q9HCP0)"}, "WEE1 (human)": {"target": "WEE1 (human) (UniProt P30291)"}, "DYRK1A (human)": {"target": "DYRK1A (human) (UniProt Q13627)"}, "MAPK14 (human)": {"target": "MAPK14 (human) (UniProt Q16539)"}, "NEK1 (human)": {"target": "NEK1 (human) (UniProt Q96PY6)", "sequence (Q96PY6 whole entry, looked up)": "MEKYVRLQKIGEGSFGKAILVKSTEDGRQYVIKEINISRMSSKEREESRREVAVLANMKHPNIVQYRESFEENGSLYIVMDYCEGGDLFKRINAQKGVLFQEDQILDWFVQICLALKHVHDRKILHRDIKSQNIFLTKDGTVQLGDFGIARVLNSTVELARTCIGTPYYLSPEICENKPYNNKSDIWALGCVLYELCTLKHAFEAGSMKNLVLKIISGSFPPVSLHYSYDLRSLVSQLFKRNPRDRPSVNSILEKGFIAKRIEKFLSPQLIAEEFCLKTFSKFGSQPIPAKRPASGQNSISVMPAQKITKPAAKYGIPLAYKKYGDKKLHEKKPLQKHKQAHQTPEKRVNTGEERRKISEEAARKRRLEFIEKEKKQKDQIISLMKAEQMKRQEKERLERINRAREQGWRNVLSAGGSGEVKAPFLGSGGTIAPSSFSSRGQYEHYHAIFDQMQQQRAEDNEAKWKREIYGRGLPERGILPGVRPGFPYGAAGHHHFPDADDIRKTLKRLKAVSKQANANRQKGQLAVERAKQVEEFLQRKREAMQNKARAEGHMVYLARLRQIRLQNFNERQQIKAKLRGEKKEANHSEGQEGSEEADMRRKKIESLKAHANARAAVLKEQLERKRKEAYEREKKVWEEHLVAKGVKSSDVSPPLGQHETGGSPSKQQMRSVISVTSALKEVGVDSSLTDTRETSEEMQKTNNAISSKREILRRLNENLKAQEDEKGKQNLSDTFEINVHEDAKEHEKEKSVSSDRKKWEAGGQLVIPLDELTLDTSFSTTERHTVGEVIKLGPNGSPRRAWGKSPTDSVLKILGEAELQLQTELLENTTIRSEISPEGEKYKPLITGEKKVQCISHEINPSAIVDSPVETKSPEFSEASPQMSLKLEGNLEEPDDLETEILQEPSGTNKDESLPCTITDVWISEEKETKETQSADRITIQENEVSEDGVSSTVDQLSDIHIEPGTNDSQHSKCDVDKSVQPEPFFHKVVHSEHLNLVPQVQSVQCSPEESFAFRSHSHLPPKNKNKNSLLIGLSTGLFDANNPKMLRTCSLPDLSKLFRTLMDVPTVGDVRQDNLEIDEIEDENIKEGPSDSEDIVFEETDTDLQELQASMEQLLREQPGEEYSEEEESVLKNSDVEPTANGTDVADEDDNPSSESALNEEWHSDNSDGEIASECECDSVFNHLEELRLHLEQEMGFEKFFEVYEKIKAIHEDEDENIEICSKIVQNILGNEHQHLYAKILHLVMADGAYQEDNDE"}, "MINK1 (human)": {"target": "MINK1 (human) (UniProt Q8N4C8)"}, "DYRK2 (human)": {"target": "DYRK2 (human) (UniProt Q92630)"}, "MERTK (human)": {"target": "MERTK (human) (UniProt Q12866)"}, "TSSK2 (human)": {"target": "TSSK2 (human) (UniProt Q96PF2)"}, "PRKCI (human)": {"target": "PRKCI (human) (UniProt P41743)"}, "MAP3K11 (human)": {"target": "MAP3K11 (human) (UniProt Q16584)"}, "NEK3 (human)": {"target": "NEK3 (human) (UniProt P51956)"}, "MARK4 (human)": {"target": "MARK4 (human) (UniProt Q96L34)"}, "FES (human)": {"target": "FES (human) (UniProt P07332)"}, "ACVR1 (human)": {"target": "ACVR1 (human) (UniProt Q04771)"}, "ERBB2 (human)": {"target": "ERBB2 (human) (UniProt P04626)", "sequence (P04626 whole entry, looked up)": "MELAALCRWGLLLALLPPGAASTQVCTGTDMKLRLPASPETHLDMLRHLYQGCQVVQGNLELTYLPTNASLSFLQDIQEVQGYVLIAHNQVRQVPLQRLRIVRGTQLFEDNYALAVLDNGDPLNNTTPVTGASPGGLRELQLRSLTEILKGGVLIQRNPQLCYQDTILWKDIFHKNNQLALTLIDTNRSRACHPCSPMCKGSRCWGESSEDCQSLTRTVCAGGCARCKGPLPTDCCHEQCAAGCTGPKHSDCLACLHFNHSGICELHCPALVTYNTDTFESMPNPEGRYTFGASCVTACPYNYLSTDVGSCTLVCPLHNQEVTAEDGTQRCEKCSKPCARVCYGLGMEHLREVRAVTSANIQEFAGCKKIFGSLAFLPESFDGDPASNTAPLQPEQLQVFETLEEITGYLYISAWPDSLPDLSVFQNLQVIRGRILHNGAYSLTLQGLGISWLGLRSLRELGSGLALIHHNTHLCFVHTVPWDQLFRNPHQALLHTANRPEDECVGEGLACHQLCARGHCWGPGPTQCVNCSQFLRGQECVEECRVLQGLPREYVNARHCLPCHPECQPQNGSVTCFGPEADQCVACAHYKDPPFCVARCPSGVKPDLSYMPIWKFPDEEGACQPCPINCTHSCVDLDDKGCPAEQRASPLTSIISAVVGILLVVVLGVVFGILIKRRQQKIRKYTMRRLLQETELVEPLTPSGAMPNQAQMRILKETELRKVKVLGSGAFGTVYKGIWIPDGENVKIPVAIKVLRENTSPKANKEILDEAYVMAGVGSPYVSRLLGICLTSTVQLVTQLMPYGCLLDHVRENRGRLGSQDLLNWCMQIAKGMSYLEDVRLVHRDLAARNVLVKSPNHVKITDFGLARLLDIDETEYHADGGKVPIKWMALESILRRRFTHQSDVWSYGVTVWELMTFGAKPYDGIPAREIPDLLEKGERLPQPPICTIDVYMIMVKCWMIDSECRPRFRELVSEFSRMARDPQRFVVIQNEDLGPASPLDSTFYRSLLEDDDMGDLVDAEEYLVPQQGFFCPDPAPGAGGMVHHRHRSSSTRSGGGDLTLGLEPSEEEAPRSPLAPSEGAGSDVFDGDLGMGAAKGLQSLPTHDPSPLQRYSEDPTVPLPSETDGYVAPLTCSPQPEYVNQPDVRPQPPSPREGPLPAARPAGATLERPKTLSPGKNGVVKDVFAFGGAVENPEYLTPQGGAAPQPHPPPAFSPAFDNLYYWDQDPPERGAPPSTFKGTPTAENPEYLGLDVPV"}, "CHEK1 (human)": {"target": "CHEK1 (human) (UniProt O14757)"}, "PHKG1 (human)": {"target": "PHKG1 (human) (UniProt Q16816)"}, "SLK (human)": {"target": "SLK (human) (UniProt Q9H2G2)"}, "FLT1 (human)": {"target": "FLT1 (human) (UniProt P17948)"}, "MATK (human)": {"target": "MATK (human) (UniProt P42679)"}, "CSNK1D (human)": {"target": "CSNK1D (human) (UniProt P48730)", "sequence (P48730 whole entry, looked up)": "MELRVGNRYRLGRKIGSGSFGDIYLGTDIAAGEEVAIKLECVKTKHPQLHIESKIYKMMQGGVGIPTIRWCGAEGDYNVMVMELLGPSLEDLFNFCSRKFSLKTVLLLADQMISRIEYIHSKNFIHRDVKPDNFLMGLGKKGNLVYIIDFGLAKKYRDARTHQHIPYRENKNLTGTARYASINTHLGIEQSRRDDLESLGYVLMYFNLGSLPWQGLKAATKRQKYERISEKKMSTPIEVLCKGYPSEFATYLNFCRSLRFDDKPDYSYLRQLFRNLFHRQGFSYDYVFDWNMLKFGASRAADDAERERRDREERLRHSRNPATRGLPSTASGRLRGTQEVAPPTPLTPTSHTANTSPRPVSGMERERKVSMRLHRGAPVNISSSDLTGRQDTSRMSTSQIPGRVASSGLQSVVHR"}, "MAP3K10 (human)": {"target": "MAP3K10 (human) (UniProt Q02779)", "sequence (Q02779 whole entry, looked up)": "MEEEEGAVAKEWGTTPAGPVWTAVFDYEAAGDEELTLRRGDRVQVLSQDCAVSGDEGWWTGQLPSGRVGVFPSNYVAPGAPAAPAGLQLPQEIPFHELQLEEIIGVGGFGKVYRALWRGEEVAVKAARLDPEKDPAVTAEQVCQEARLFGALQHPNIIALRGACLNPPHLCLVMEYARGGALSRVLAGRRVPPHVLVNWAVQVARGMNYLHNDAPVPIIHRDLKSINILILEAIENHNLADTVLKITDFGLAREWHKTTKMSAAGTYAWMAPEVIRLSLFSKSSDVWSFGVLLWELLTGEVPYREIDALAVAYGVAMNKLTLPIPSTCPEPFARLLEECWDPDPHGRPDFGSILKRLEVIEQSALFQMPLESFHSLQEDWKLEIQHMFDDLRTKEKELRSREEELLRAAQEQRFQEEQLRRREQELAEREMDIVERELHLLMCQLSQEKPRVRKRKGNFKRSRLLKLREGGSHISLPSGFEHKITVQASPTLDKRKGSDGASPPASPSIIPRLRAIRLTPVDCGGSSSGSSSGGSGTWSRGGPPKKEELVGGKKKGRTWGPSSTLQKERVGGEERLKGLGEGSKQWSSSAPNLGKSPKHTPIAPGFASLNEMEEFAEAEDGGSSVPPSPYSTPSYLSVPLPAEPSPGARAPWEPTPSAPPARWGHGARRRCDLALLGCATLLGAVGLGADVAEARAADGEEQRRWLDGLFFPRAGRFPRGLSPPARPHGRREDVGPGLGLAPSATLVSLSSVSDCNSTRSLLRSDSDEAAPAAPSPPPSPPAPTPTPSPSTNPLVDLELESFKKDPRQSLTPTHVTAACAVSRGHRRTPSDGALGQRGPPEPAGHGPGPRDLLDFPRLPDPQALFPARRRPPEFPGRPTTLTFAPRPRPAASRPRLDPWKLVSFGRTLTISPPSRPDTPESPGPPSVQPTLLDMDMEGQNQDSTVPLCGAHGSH"}, "HIPK3 (human)": {"target": "HIPK3 (human) (UniProt Q9H422)"}, "STK25 (human)": {"target": "STK25 (human) (UniProt O00506)"}, "PKN2 (human)": {"target": "PKN2 (human) (UniProt Q16513)"}},
  "data": [
    {"smiles": "O=C(CCCc1ccc(-c2ccccc2F)cc1)Nc1ccc(O)cc1", "values": [
      {"measurement": "residual activity", "setting": "EPHB1 (human)", "result": 96.4, "unit": "%"},
      {"measurement": "residual activity", "setting": "INSRR (human)", "result": 92.7, "unit": "%"},
      {"measurement": "residual activity", "setting": "HIPK1 (human)", "result": 105, "unit": "%"},
      {"measurement": "residual activity", "setting": "WNK2 (human)", "result": 106, "unit": "%"},
      {"measurement": "residual activity", "setting": "EPHA8 (human)", "result": 114, "unit": "%"},
      {"measurement": "residual activity", "setting": "PRKD1 (human)", "result": 98.4, "unit": "%"},
      {"measurement": "residual activity", "setting": "ABL2 (human)", "result": 95.3, "unit": "%"},
      {"measurement": "residual activity", "setting": "ITK (human)", "result": 85, "unit": "%"},
      {"measurement": "residual activity", "setting": "IKBKE (human)", "result": 98.2, "unit": "%"},
      {"measurement": "residual activity", "setting": "PAK1 (human)", "result": 95.4, "unit": "%"},
      {"measurement": "residual activity", "setting": "TEK (human)", "result": 101, "unit": "%"},
      {"measurement": "residual activity", "setting": "PBK (human)", "result": 90.8, "unit": "%"},
      {"measurement": "residual activity", "setting": "CDK6 CCND3 (human)", "result": 103, "unit": "%"},
      {"measurement": "residual activity", "setting": "CDC42BPB (human)", "result": 109, "unit": "%"},
      {"measurement": "residual activity", "setting": "PRKD2 (human)", "result": 97.6, "unit": "%"},
      {"measurement": "residual activity", "setting": "BRSK2 (human)", "result": 99.2, "unit": "%"},
      {"measurement": "residual activity", "setting": "CSNK1G1 (human)", "result": 104, "unit": "%"},
      {"measurement": "residual activity", "setting": "WEE1 (human)", "result": 83.7, "unit": "%"},
      {"measurement": "residual activity", "setting": "DYRK1A (human)", "result": 106, "unit": "%"},
      {"measurement": "residual activity", "setting": "MAPK14 (human)", "result": 89, "unit": "%"},
      {"measurement": "residual activity", "setting": "NEK1 (human)", "result": 100, "unit": "%"},
      {"measurement": "residual activity", "setting": "MINK1 (human)", "result": 97.3, "unit": "%"},
      {"measurement": "residual activity", "setting": "DYRK2 (human)", "result": 91.8, "unit": "%"},
      {"measurement": "residual activity", "setting": "MERTK (human)", "result": 98.8, "unit": "%"},
      {"measurement": "residual activity", "setting": "TSSK2 (human)", "result": 115, "unit": "%"},
      {"measurement": "residual activity", "setting": "PRKCI (human)", "result": 95.5, "unit": "%"},
      {"measurement": "residual activity", "setting": "MAP3K11 (human)", "result": 101, "unit": "%"},
      {"measurement": "residual activity", "setting": "NEK3 (human)", "result": 109, "unit": "%"},
      {"measurement": "residual activity", "setting": "MARK4 (human)", "result": 124, "unit": "%"},
      {"measurement": "residual activity", "setting": "FES (human)", "result": 100, "unit": "%"},
      {"measurement": "residual activity", "setting": "ACVR1 (human)", "result": 95.2, "unit": "%"},
      {"measurement": "residual activity", "setting": "ERBB2 (human)", "result": 101, "unit": "%"},
      {"measurement": "residual activity", "setting": "CHEK1 (human)", "result": 98.8, "unit": "%"},
      {"measurement": "residual activity", "setting": "PHKG1 (human)", "result": 89.1, "unit": "%"},
      {"measurement": "residual activity", "setting": "SLK (human)", "result": 102, "unit": "%"},
      {"measurement": "residual activity", "setting": "FLT1 (human)", "result": 93.1, "unit": "%"},
      {"measurement": "residual activity", "setting": "MATK (human)", "result": 92.2, "unit": "%"},
      {"measurement": "residual activity", "setting": "CSNK1D (human)", "result": 102, "unit": "%"},
      {"measurement": "residual activity", "setting": "MAP3K10 (human)", "result": 88.8, "unit": "%"},
      {"measurement": "residual activity", "setting": "HIPK3 (human)", "result": 99.4, "unit": "%"},
      {"measurement": "residual activity", "setting": "STK25 (human)", "result": 105, "unit": "%"},
      {"measurement": "residual activity", "setting": "PKN2 (human)", "result": 89.8, "unit": "%"}
    ]}
  ]
}
